How the values were obtained:
[1] = molecular target: Human CB1R (Cannabanoid receptor 1) (Homo sapiens (Human), UniProt P21554); assay: CB-1 in vitro cAMP (HTRF) assay in HEK-293 cells; format: cell-based; details: HEK-293 cells stably transfected with human CB1R, 250 nM Forskolin, mean where tested more than once, read-out: CB-1 (HEK_cAMP) EC50
Description: (§1) CB1 and CB2 receptors are Gi-coupled GPCR. Activation of CB1 and CB2 receptors results in a decrease in cAMP production. An inverse agonist of the CB1 or CB2 receptor results in the opposite effect, an increase of cAMP production. The principle of this assay is based on HTRF® technology (Homogeneous Time-Resolved Fluorescence). The method is a competitive immunoassay between native cAMP produced by cells and the cAMP labeled with the fluorophore d2. The tracer binding is quantified by a Mab anti-cAMP labeled with Eu3+TBP-NHS Cryptate (supplied as part of the assay kit). The specific signal (i.e. energy transfer) is inversely proportional to the concentration of cAMP in the standard or sample.
(§2) Human CB1R (Cannabanoid receptor 1) was stably transfected in HEK-293 cells (DiscoveRx, cat: 93-0200C1). Human CB2R (Cannabanoid receptor 2) was stably transfected in HEK-293 cells (DiscoveRx, cat: 93-0201C1). Cell cultures were maintained in media: DMEM (Invitrogen Cat#12430-054) supplemented with 10% HI FBS (Invitrogen Cat#16140-071), 1% L-glutamine (Invitrogen Cat#25030-081), 0.2 mg/ml Hygromycin B (Invitrogen Cat#10687-010), 600 μg/mL G418 (Invitrogen Cat#10131-035), and 1× Penn/Strep (Invitrogen 15140-122). After cell expansion, aliquots were cryo-stored in media containing 5% DMSO (Pierce Cat#20684).
(§3) One day prior to experiments media was warmed to 37° C. and the cryo-stored cells were thawed in a 37° C. water bath. The cells were then added to media (10× volume) and the mixture was centrifugated at 1000 RPM for 5 min. The supernate was removed and the cells were re-suspended in media. A sample of the cell suspension was evaluated on a Cedex XS automated cell counter (Innovatis Systems) to determine viable cells/ml. Additional media was added to the cells to achieve a final cell density of 4E5 cells/mL. The cells were then plated into 384 well PDL white solid bottom plates (Greiner, Cat#781945) at 20 μL per well using a Multidrop (Thermo Scientific). Cells were removed from Row P (location of cAMP standards). Two columns of cells were plated into a clear bottom 384 well PDL coated plate (Greiner, Cat#781944) to view confluence the day of the assay. The cell plates were lidded and stored for 15 minutes in a hood, then transferred to an incubator (37° C., 5% CO2, 95% humidity) overnight.
(§4) DMSO was added to all wells of 384 well V bottom polystyrene plate (Greiner, Cat#781280) except to columns 1 and 13, rows O and P and wells M13-M23 and N13-N23. Test compounds (60 μL, 10 mM) were added to Column 1 and 13 (A1 through N1 and A13 through L13). Test compounds were serially diluted 1/3 by transferring and mixing 20 μl sample with 40 μL DMSO.
(§5) DMSO (40 μL) was added to wells of 384 well V bottom polystyrene plate: O2 through O11, M14 through M23, N14 through N23, and O14 through 023. AM630 (also known as [6-iodo-2-methyl-1-[2-(4-morpholinyl)ethyl]-1H-indol-3-yl](4-methoxyphenyl)-methanone, Cayman Chemical, Cat#10006974) (60 μL, 10 mM) was added to 01; and 1-(2,4-dichlorophenyl)-7-[(4-fluorophenyl)methylene]-4,5,6,7-tetrahydro-N-1-piperidinyl-1H-indazole-3-carboxamide (60 μL, 10 mM) was added to N13. The control was serially diluted 1/3 by transferring and mixing 20 μl sample with 40 μL DMSO. This process resulted 11 doses per control, 10 mM to […].
(§6) Cells plated the day prior to the assay in clear bottom plates were viewed on an inverse microscope to ensure confluency in the range of 60-75%. […]

[2] = molecular target: Human CB2R (Cannabanoid receptor 2) (Homo sapiens (Human), UniProt P34972); assay: CB-2 in vitro cAMP (HTRF) assay in HEK-293 cells; format: cell-based; details: HEK-293 cells stably transfected with human CB2R, 250 nM Forskolin, mean where tested more than once, read-out: CB-2 (HEK_cAMP) EC50
Description: as §1, §2, §3, §4, §5, §6

Sequence of Human CB2R (Cannabanoid receptor 2) (P34972 whole entry): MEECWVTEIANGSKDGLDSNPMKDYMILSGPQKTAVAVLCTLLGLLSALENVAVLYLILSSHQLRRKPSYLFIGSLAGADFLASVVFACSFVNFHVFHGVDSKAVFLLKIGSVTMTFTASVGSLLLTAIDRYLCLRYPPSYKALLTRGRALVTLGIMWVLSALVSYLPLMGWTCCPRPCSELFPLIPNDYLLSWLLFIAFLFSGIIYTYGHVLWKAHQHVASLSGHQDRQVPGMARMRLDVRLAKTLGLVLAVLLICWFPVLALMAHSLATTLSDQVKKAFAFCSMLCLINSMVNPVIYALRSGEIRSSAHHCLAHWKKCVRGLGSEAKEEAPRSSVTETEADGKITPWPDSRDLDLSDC
Sequence of Human CB1R (Cannabanoid receptor 1) (P21554 whole entry): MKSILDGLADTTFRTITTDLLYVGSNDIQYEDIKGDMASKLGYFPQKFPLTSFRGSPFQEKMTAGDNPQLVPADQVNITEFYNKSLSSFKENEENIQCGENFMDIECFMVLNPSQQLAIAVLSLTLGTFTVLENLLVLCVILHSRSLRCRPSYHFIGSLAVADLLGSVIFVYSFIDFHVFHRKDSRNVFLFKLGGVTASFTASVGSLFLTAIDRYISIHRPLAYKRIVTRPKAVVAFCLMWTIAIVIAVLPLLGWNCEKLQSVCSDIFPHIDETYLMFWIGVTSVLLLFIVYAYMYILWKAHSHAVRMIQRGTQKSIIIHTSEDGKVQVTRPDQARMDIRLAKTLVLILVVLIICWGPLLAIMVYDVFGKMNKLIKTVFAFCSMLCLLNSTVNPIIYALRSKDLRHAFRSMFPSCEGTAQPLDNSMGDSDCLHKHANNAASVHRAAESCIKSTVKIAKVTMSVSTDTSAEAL

Row | Structure (SMILES) | EC50 [1] | EC50 [2]
1 | Cn1nc(C2CCN(S(=O)(=O)c3ccc(C(=O)O)cc3)CC2)c2cc(C(c3ccc(Cl)cc3)c3ccc(Cl)cc3)ccc21 [Compound 62] | 845 nM | > 10000 nM
2 | Cn1nc(C2CCN(S(=O)(=O)c3cccc(C(=O)O)c3)CC2)c2cc(C(c3ccc(Cl)cc3)c3ccc(Cl)cc3)ccc21 [Compound 63] | 66 nM | > 10000 nM
3 | Cn1nc(C2CCN(S(=O)(=O)c3ccc(C(N)=O)cc3)CC2)c2cc(C(c3ccc(Cl)cc3)c3ccc(Cl)cc3)ccc21 [Compound 64] | 24 nM | > 10000 nM
4 | COc1ccc(C(c2ccc(OC)cc2)c2ccc3[nH]nc(C4CCN(S(=O)(=O)C(F)(F)F)CC4)c3c2)cc1 [Compound 67] | 2 nM | 5200 nM
5 | O=C(O)c1cccc(S(=O)(=O)N2CCC(c3nn(CCO)c4ccc(C(c5ccc(Cl)cc5)c5ccc(Cl)cc5)cc34)CC2)c1 [Compound 68] | 85 nM | > 10000 nM
6 | NC(=O)c1ccc(S(=O)(=O)N2CCC(c3nn(CCO)c4ccc(C(c5ccc(Cl)cc5)c5ccc(Cl)cc5)cc34)CC2)cc1 [Compound 69] | 26 nM | > 10000 nM
7 | NC(=O)c1ccccc1S(=O)(=O)N1CCC(c2nn(CCO)c3ccc(C(c4ccc(Cl)cc4)c4ccc(Cl)cc4)cc23)CC1 [Compound 70] | 428 nM | > 10000 nM
8 | NS(=O)(=O)c1cccc(C(=O)N2CCC(c3nn(CCO)c4ccc(C(c5ccc(Cl)cc5)c5ccc(Cl)cc5)cc34)CC2)c1 [Compound 71] | 68 nM | > 10000 nM
9 | NS(=O)(=O)c1ccc(C(=O)N2CCC(c3nn(CCO)c4ccc(C(c5ccc(Cl)cc5)c5ccc(Cl)cc5)cc34)CC2)cc1 [Compound 72] | 39 nM | > 10000 nM
10 | CCOC(=O)Cn1nc(C2CCN(S(=O)(=O)C(F)(F)F)CC2)c2cc(C(c3ccc(Cl)cc3)c3ccc(Cl)cc3)ccc21 [Compound 75] | 3920 nM | > 10000 nM
11 | O=C(O)c1ccc(S(=O)(=O)N2CCC(c3nn(CCO)c4ccc(C(c5ccc(Cl)cc5)c5ccc(Cl)cc5)cc34)CC2)cc1 [Compound 80] | 374 nM | > 10000 nM
12 | NC(=O)c1cccc(S(=O)(=O)N2CCC(c3nn(CCO)c4ccc(C(c5ccc(Cl)cc5)c5ccc(Cl)cc5)cc34)CC2)c1 [Compound 82] | 82 nM | > 10000 nM
13 | O=C(O)CCS(=O)(=O)N1CCC(c2nn(CCO)c3ccc(C(c4ccc(Cl)cc4)c4ccc(Cl)cc4)cc23)CC1 [Compound 83] | 1570 nM | > 10000 nM
14 | O=C(O)c1ccccc1S(=O)(=O)N1CCC(c2nn(C3CC3)c3ccc(C(c4ccc(Cl)cc4)c4ccc(Cl)cc4)cc23)CC1 [Compound 87] | 6740 nM | > 10000 nM
15 | O=C(O)c1cccc(S(=O)(=O)N2CCC(c3nn(C4CC4)c4ccc(C(c5ccc(Cl)cc5)c5ccc(Cl)cc5)cc34)CC2)c1 [Compound 88] | 115 nM | > 10000 nM
16 | O=C(O)c1ccc(S(=O)(=O)N2CCC(c3nn(C4CC4)c4ccc(C(c5ccc(Cl)cc5)c5ccc(Cl)cc5)cc34)CC2)cc1 [Compound 89] | 339 nM | > 10000 nM
17 | NC(=O)c1ccccc1S(=O)(=O)N1CCC(c2nn(C3CC3)c3ccc(C(c4ccc(Cl)cc4)c4ccc(Cl)cc4)cc23)CC1 [Compound 93] | 533 nM | > 10000 nM
18 | NC(=O)c1cccc(S(=O)(=O)N2CCC(c3nn(C4CC4)c4ccc(C(c5ccc(Cl)cc5)c5ccc(Cl)cc5)cc34)CC2)c1 [Compound 94] | 65 nM | > 10000 nM
19 | NC(=O)c1ccc(S(=O)(=O)N2CCC(c3nn(C4CC4)c4ccc(C(c5ccc(Cl)cc5)c5ccc(Cl)cc5)cc34)CC2)cc1 [Compound 95] | 63 nM | 6500 nM
20 | NC(=O)c1ccccc1C(=O)N1CCC(c2nn(C3CC3)c3ccc(C(c4ccc(Cl)cc4)c4ccc(Cl)cc4)cc23)CC1 [Compound 96] | 2240 nM | > 10000 nM
21 | O=C(O)c1cccc(C(=O)N2CCC(c3nn(C4CC4)c4ccc(C(c5ccc(Cl)cc5)c5ccc(Cl)cc5)cc34)CC2)c1 [Compound 97] | 478 nM | > 10000 nM
22 | NC(=O)c1cccc(C(=O)N2CCC(c3nn(C4CC4)c4ccc(C(c5ccc(Cl)cc5)c5ccc(Cl)cc5)cc34)CC2)c1 [Compound 98] | 64 nM | > 10000 nM
23 | O=C(O)c1ccc(C(=O)N2CCC(c3nn(C4CC4)c4ccc(C(c5ccc(Cl)cc5)c5ccc(Cl)cc5)cc34)CC2)cc1 [Compound 99] | 345 nM | > 10000 nM
24 | O=C(O)c1ccccc1C(=O)N1CCC(c2nn(C3CC3)c3ccc(C(c4ccc(Cl)cc4)c4ccc(Cl)cc4)cc23)CC1 [Compound 103] | 6010 nM | > 10000 nM

The next lines start with the values.

Row | EC50 [1] | EC50 [2] | Structure (SMILES)
25 | 25 nM | > 10000 nM | NC(=O)c1cccc(S(=O)(=O)N2CCC(c3n[nH]c4ccc(C(c5ccc(Cl)cc5)c5ccc(Cl)cc5)cc34)CC2)c1 [Compound 65]
26 | 160 nM | > 10000 nM | NC(=O)c1cccc(S(=O)(=O)N2CCC(c3n[nH]c4ccc(C(c5ccc(Cl)cc5)c5ccc(Cl)cc5)cc34)CC2)c1 [Compound 66]
27 | 762 nM | > 10000 nM | O=C(O)Cn1nc(C2CCN(S(=O)(=O)C(F)(F)F)CC2)c2cc(C(c3ccc(Cl)cc3)c3ccc(Cl)cc3)ccc21 [Compound 73]
28 | 162 nM | > 10000 nM | CC(C)(C)OC(=O)N1CCC(Nc2n[nH]c3ccc(C(c4ccc(Cl)cc4)c4ccc(Cl)cc4)cc23)CC1 [Compound 74]
29 | 112 nM | > 10000 nM | CC(C)(C)OC(=O)N1CCC(c2nn(CCO)c3ccc(C(c4ccc(Cl)cc4)c4ccc(Cl)cc4)cc23)CC1 [Compound 76]
30 | 60 nM | > 10000 nM | O=S(=O)(N1CCC(Nc2n[nH]c3ccc(C(c4ccc(Cl)cc4)c4ccc(Cl)cc4)cc23)CC1)C(F)(F)F [Compound 77]
31 | 179 nM | > 10000 nM | CC(C)S(=O)(=O)N1CCC(Nc2n[nH]c3ccc(C(c4ccc(Cl)cc4)c4ccc(Cl)cc4)cc23)CC1 [Compound 78]
32 | 14 nM | > 10000 nM | O=S(=O)(N1CCC(c2nn(CCO)c3ccc(C(c4ccc(Cl)cc4)c4ccc(Cl)cc4)cc23)CC1)C(F)(F)F [Compound 79]
33 | 7320 nM | > 10000 nM | O=S(=O)(C(F)F)N1CCC(c2n[nH]c3ccc(C(c4ccc(Cl)cc4)c4ccc(Cl)cc4)cc23)CC1 [Compound 81]
34 | 716 nM | 3100 nM | NC(=O)CC(=O)N1CCC(c2nn(C3CC3)c3ccc(C(c4ccc(Cl)cc4)c4ccc(Cl)cc4)cc23)CC1 [Compound 90]
35 | 39 nM | > 10000 nM | O=C(CO)N1CCC(c2nn(C3CC3)c3ccc(C(c4ccc(Cl)cc4)c4ccc(Cl)cc4)cc23)CC1 [Compound 91]
36 | 29 nM | > 10000 nM | NC(=O)CCC(=O)N1CCC(c2nn(C3CC3)c3ccc(C(c4ccc(Cl)cc4)c4ccc(Cl)cc4)cc23)CC1 [Compound 92]
37 | 428 nM | > 10000 nM | COc1ccccc1S(=O)(=O)N1CCC(Nc2n[nH]c3ccc(C(c4ccc(Cl)cc4)c4ccc(Cl)cc4)cc23)CC1 [Compound 100]
38 | 293 nM | > 10000 nM | COc1cccc(S(=O)(=O)N2CCC(Nc3n[nH]c4ccc(C(c5ccc(Cl)cc5)c5ccc(Cl)cc5)cc34)CC2)c1 [Compound 101]
39 | 477 nM | > 10000 nM | O=C(O)CC(=O)N1CCC(c2nn(C3CC3)c3ccc(C(c4ccc(Cl)cc4)c4ccc(Cl)cc4)cc23)CC1 [Compound 102]
